The source of these data is patent US20250177329A1, “GPR120 AGONISTS FOR THE TREATMENT OF INFLAMMATORY BOWEL DISEASE” (Dompe' Farmaceutici SPA, priority 2022, published 2025).

Data set [1] has as its target T1, GPR120 (Mus musculus, UniProt Q7TMA4).
T1 construct: Colon lysates (˜900 μg proteins) from 6 mice of each experimental group were pooled; from tissue; host or cells: mouse colon (DSS colitis model)
T1 sequence (Q7TMA4 1-361): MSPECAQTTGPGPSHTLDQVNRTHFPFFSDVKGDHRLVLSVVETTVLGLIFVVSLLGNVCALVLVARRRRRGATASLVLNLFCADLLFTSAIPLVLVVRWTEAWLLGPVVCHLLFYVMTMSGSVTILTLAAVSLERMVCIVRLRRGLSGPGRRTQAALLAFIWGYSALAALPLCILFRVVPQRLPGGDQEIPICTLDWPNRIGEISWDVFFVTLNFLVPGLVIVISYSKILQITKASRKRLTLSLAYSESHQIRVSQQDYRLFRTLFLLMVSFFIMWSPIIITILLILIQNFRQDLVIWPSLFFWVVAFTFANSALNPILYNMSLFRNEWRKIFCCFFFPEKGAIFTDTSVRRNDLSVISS
The experiment in a line: Co-immunoprecipitation of β-arrestin 2 with GPR120 in colon lysates of DSS mice. The data set is classed as in vivo. How it is done: The efficiency of DFL in activating the GPR120 and/or GPR40 receptors was tested.
Agonist-induced GPR120 can engage multiple signalling pathways to regulate distinct physiological outcomes. After ligand binding, B-arrestins, such as B-arrestin 2 can associate with the cytoplasmic domains of GPR120 and couple the receptor to specific downstream signaling pathways (FIG. 9). For this reason, we verified the agonist efficiency in activating GPR120 and GPR40 by immunoprecipitation. Colon lysates (˜900 μg proteins) from 6 mice of each experimental group were pooled, precleared with protein A/G plus-agarose (Santa Cruz) and then incubated with the antibody used for immunoprecipitation (anti-GPR120 or anti-GPR40, Abcam) at 4° C. for 16 h, followed by incubation with protein A/G plus-agarose for 5 h. The agarose beads were then collected by centrifugation, washed four times with lysis buffer, and heated to 95° C. for 5 min after adding Laemmli buffer. The resulting immunoprecipitates were separated by SDS-PAGE and probed with the anti-β-arrestin 2 antibody (Santa Cruz).
Upon western blotting, a densitometric analysis of the blots was performed using Image J. FIGS. 10 and 11 show the ratio between co-immunoprecipitated β-arrestin 2 and GPR120 (FIG. 10) or GPR40 levels (FIG. 11) and the results of the blotting.

The nature of data set [2]: Plasma pharmacokinetics after single oral administration to mice. The data set is classed as in vivo. As to conditions: male, CD1, mouse, single oral dose (Dose_PO: 10.0-90.0 mg/kg). The text has this:
The purpose of this study was to evaluate plasma and tissue exposure of the following compounds after a single oral administration to mice: • 7-(3-(N-(4-fluoro-2,6-dimethylphenyl)sulfamoyl)phenyl)heptanoic acid (indicated below as DFL23806), • 7-(3-(N-(4-chloro-2,6-dimethylphenyl)sulfamoyl)phenyl)heptanoic acid (indicated below as DFL23914) • 7-(3-(N-(2,6-dimethyl-4-(trifluoromethyl)phenyl)sulfamoyl)phenyl)heptanoic acid (indicated below as DFL23922) • 7-(3-(N-(6-fluoro-4-methyl-[1,1′-biphenyl]-3-yl)sulfamoyl)phenyl)heptanoic acid (indicated below as DFL23916) • 7-(3-(N-(5-fluoro-3-methyl-[1,1′-biphenyl]-2-yl)sulfamoyl)phenyl)heptanoic acid (indicated below as DFL23917) • 7-(3-{[4-fluoro-2-methyl-5-(thiophen-2-yl)phenyl]sulfamoyl}phenyl)heptanoic acid (indicated below as DFL24102) […]
A retro-orbital, composite blood sampling at pre-dose or after dosing at 30 min, 1, 2, 6, 8 and 24 hours (three mice/time point) was carried out for the plasma pharmacokinetic assessment. Blood samples were collected in heparinized collection tubes. Samples were taken immediately onto ice and kept cool until centrifugation (10000 g for 3 minutes at about +4° C.). About 50 μL of plasma were stored in a freezer at −80° C. pending analysis.
After samples collection, bioanalysis for concentrations of the test compounds were done using HPLC-MS/MS methods and pharmacokinetic analysis of the compounds in plasma and tissues was performed according to standard non-compartmental approach using Watson system (v 7.6, Thermo Fisher Scientific Waltham, MA, USA) on mean concentration data.

The nature of data set [3]: Biodistribution in colon after single oral dose. The format is in vivo. The following applies: PO 90.0 mg/kg, male Swiss albino mice. As for the experimental part:
The biodistribution of DFL23806 in the proximal and distal colon was evaluated in male Swiss albino mice following single dose oral administration of DFL23806 90 mg/kg.
Colon concentration (ng/g) of DFL23806 after PO (90.0 mg/kg) dose administration to male Swiss albino mice.
Colon/Plasma ratio of DFL23806 after PO (90.0 mg/kg) dose administration to male Swiss albino mice.

For data set [4], the target named is T2, human GPR120 (Homo sapiens, UniProt Q5NUL3).
T2 sequence (Q5NUL3 1-361): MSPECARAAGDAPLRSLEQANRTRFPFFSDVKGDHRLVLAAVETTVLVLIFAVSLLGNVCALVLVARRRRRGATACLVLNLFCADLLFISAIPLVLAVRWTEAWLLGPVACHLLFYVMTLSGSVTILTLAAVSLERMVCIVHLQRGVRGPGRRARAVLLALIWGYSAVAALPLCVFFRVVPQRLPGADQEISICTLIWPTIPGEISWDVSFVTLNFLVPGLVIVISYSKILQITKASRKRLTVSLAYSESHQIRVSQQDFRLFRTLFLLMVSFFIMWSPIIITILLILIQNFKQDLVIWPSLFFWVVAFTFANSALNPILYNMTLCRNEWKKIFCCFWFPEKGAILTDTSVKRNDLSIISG
Put plainly: Internalization of GPR120 (Enzyme Fragment Complementation, DiscoverX). The format is cell-based. The following applies: at 100 μM.

Consider `Cc1cc(F)cc(C)c1NS(=O)(=O)c1cccc(CCCCCCC(=O)O)c1` [DFL23806, 7-(3-(N-(4-fluoro-2,6-dimethylphenyl)sulfamoyl)phenyl)heptanoic acid], for which, in data set [1] (from β-arrestin 2 co-immunoprecipitation with GPR120 and GPR40), the “selectivity GPR120 versus GPR40” value is on record as “GPR120 selective agonist”. Moreover, in data set [1] (pooled colon lysates, day 39, DFL 90 mg/kg, compared to control groups or DSS+5-ASA 60 mg/Kg), the “association between GPR120 and β-arrestin 2 (ratio co-immunoprecipitated β-arrestin 2 / GPR120)” value is “higher compared to control groups”. In data set [2], the AUC(0-inf) is 405 ng·h/mL, the AUC(0-t) came to 354 ng·h/mL, the Cmax was 106 ng/mL and the Tmax was 0.5 h. For the same compound, the half-life in data set [2] is 5.8 h. For the same compound, the “Colon/Plasma ratio, Mean” value in data set [3] (4.00 h, 90 mg/kg) came out at 64.20. Further, the Kp at 1 h in data set [3] (mouse, colon/plasma, 1.00 h, read-out: Colon/Plasma ratio, Mean) came to 1.63. Further, the Kp at 4 h in data set [3] (mouse, colon/plasma, 4.00 h, read-out: Colon/Plasma ratio, Mean) is 64.2. In data set [3] (mouse, colon, 1.00 h), this compound came in with a concentration at 1 h of 68.3 ng/g. In data set [3] (mouse, colon, 4.00 h), this compound gave a concentration at 4 h of 3570 ng/g. The “efficacy of internalization of the human GPR120 receptor” value in data set [4] was found to be 59.1%.
